One experiment concerns immortalized melanocytes. Particulars: cannot calculate = toxic even at lower concentration and no dose–activity curve occurred.
The target in the next experiment is rat nNOS (Rattus norvegicus, UniProt P29476).
The test system of experiment [1] is metastatic melanoma A375 cell line. To be noted: read-out: EC50 in A375 cells; cited from earlier work.
The subject of a further experiment is Sk-Mel28 cells. To be noted: read-out: EC50 in Sk-Mel28 cells; cited from earlier work.

The source of these data is article PMC3983353 (Journal of Medicinal Chemistry, 2014).

rat nNOS, sequence (P29476 whole entry): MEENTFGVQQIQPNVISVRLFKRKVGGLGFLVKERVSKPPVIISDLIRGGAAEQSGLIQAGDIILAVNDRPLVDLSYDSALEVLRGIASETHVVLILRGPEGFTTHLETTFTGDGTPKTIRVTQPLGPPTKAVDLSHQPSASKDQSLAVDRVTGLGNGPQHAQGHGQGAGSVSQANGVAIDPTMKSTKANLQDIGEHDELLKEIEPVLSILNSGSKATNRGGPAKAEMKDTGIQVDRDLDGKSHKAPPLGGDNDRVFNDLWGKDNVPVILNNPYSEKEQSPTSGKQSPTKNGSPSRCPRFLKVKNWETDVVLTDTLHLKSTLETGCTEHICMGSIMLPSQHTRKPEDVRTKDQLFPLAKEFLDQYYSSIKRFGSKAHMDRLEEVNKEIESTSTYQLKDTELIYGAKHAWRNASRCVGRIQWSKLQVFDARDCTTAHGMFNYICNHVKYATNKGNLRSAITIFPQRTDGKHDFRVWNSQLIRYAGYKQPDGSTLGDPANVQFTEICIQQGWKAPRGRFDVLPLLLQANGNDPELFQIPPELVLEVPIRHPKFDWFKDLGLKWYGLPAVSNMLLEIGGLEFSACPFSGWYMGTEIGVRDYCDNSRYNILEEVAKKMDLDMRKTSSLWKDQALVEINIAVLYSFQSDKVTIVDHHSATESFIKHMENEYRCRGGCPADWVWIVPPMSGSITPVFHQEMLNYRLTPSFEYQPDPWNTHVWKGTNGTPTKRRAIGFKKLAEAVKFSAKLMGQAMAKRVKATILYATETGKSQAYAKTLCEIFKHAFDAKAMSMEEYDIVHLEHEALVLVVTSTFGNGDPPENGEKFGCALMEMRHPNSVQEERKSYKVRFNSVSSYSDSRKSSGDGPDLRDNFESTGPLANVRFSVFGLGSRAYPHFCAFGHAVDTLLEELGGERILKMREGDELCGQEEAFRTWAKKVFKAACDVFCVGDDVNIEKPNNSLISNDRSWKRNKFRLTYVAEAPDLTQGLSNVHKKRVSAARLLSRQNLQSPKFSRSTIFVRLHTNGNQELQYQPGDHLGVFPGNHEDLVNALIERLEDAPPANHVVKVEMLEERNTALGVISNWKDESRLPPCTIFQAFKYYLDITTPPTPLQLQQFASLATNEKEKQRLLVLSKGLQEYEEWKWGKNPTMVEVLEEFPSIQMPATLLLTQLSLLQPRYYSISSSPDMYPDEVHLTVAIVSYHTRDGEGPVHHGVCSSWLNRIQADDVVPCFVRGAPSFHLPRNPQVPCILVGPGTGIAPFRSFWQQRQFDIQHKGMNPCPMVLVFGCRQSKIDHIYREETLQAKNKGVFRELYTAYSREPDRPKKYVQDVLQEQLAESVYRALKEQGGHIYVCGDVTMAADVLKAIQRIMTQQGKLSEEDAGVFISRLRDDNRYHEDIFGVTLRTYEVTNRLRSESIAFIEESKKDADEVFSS

`N=C(Nc1cccc(CCNCc2cccc(NC(=N)c3cccs3)c2)c1)c1cccs1` [compound 13, N-(3-(2-((3-(Thiophene-2-carboximidamido)benzyl)amino)ethyl)phenyl)thiophene-2-carboximidamide]: the EC50 immortalized melanocytes entry in the experiment with immortalized melanocytes is given as “cannot calculate ^b”.

In the case of `CCN(CCc1cccc(F)c1)Cc1cccc(NC(=N)c2cccs2)c1` [compound 17, N-(3-((Ethyl(3-fluorophenethyl)amino)methyl)phenyl)thiophene-2-carboximidamide], at rat nNOS, the “lower nNOS potency than 16” value was roughly 7 fold.

For `N=C(Nc1cccc(OCCCOc2cccc(NC(=N)c3cccs3)c2)c1)c1cccs1` [compound 12, N,N′-((Propane-1,3-diylbis(oxy))bis(3,1-phenylene))bis(thiophene-2-carboximidamide)], the “lower nNOS potency than 11” value on rat nNOS worked out at 2 fold.

The term EC50 denotes the concentration giving half of the maximal effect. Consider `N.N.[Cl][Pt][Cl]` [cisplatin], for which the figures for the EC50 (in experiment [1]; in the experiment with Sk-Mel28 cells) were 4.2 µM and 14.3 µM, respectively.
